Data set [1] can be described thus: SUPPLEMENTARY: Lipophilicity (log D) Determination by high-throughput shake-flask. In kind it is physicochemical. The following applies: octanol/water.
The nature of data set [2]: SUPPLEMENTARY: Lyophilisation Solubility Assay (LYSA). In kind it is physicochemical. The following applies: read-out: Kinetic_solubility.
Data set [3] deals with T1, Carnitine O-palmitoyltransferase 2, mitochondrial (Rattus norvegicus, UniProt P18886).
T1 sequence (P18886 whole entry): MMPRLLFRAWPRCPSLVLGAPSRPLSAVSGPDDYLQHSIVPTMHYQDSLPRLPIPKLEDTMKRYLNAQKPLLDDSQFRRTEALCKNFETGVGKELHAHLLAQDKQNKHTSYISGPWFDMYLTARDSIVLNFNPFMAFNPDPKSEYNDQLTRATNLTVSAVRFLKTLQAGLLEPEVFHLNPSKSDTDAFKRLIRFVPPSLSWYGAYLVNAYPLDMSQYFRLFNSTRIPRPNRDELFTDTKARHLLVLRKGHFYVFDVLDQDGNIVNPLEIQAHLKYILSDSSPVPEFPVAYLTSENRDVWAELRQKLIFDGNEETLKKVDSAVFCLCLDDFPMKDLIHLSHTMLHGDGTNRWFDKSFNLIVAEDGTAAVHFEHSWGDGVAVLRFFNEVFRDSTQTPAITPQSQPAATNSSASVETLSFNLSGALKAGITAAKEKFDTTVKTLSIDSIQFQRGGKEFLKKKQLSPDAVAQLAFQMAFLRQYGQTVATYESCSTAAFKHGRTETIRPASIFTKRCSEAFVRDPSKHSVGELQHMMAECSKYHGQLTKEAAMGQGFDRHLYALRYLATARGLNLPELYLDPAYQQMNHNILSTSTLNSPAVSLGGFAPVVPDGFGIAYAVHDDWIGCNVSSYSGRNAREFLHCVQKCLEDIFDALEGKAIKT
The data set can be described thus: (§1) SUPPLEMENTARY: Inhibition of Carnitine palmitoyltransferase 2.

Data set [4] addresses T2, Carnitine O-palmitoyltransferase 2, mitochondrial (Homo sapiens, UniProt P23786).
T2 sequence (P23786 whole entry): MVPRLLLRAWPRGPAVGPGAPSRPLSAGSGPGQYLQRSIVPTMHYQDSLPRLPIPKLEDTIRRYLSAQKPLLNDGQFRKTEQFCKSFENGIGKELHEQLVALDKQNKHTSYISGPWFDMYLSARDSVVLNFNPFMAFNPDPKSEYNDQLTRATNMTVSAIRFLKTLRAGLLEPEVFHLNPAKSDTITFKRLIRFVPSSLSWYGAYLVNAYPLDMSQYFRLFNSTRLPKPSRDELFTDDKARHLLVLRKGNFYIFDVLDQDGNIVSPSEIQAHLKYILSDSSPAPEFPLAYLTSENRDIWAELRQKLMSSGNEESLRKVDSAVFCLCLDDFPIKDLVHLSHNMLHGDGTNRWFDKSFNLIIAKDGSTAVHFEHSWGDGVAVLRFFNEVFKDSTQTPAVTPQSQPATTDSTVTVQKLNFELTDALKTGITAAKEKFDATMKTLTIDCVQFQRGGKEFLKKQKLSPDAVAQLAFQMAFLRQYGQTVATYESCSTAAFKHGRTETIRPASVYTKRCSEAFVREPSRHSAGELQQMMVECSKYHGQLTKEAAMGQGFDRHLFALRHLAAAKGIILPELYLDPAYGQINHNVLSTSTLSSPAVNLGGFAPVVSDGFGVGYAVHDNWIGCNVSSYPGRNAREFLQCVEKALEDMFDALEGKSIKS
The data set is described as §1.

A short description of data set [5]: SUPPLEMENTARY: PAMPA permeability assay. In kind it is physicochemical. The following applies: read-out: Permeability. On the technique in general: PAMPA measures passive passage across an artificial lipid membrane.
In data set [6] the target is T3, Carnitine O-palmitoyltransferase 1, muscle isoform (Homo sapiens, UniProt Q92523).
T3 sequence (Q92523 whole entry): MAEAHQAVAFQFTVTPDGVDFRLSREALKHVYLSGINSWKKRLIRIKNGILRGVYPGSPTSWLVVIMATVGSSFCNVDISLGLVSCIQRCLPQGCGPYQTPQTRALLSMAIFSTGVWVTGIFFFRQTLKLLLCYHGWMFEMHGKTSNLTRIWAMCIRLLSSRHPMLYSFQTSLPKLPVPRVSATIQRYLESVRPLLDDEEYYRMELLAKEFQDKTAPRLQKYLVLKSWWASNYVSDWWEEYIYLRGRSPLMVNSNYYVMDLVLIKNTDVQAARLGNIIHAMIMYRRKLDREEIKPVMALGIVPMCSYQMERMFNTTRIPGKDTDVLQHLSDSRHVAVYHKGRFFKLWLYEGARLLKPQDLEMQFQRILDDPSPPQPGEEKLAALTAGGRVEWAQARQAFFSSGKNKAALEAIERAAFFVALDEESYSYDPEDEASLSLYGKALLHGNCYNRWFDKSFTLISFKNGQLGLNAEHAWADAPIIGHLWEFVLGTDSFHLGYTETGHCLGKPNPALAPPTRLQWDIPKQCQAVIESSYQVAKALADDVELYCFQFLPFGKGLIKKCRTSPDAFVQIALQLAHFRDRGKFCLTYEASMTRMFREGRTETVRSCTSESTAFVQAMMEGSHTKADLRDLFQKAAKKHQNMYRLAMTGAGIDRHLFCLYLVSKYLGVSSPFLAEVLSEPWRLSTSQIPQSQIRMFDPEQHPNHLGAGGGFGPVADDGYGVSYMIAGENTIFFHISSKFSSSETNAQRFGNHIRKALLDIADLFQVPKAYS
The data set can be described thus: SUPPLEMENTARY: Inhibition of Carnitine palmitoyltransferase 1, muscle isoform. Further details: species or system Muscle tissue.

Data set [7] has as its target T4, Carnitine O-palmitoyltransferase 1, liver isoform (Homo sapiens, UniProt P50416).
T4 sequence (P50416 whole entry): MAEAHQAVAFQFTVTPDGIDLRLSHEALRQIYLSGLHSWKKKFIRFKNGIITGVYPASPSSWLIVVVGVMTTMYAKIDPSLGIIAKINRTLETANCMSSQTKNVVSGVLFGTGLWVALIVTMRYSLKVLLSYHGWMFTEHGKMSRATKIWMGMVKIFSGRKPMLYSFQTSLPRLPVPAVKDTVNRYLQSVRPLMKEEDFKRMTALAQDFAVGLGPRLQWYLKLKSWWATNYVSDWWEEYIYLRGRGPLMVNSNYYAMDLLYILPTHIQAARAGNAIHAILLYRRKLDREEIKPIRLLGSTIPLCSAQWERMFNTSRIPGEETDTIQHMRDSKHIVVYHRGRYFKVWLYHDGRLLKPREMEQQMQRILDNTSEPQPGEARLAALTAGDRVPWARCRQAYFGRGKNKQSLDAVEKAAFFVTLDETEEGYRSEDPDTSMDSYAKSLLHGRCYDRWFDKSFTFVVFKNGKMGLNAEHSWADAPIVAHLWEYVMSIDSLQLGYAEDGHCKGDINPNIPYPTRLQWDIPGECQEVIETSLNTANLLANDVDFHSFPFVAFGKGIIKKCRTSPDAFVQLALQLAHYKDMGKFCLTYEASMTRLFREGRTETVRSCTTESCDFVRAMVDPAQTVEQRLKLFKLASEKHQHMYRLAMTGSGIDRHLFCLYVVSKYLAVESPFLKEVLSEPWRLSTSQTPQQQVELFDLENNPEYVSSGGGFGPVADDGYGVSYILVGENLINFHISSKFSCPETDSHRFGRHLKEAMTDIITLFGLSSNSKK
Briefly: (§2) SUPPLEMENTARY: Inhibition of Carnitine palmitoyltransferase 1, liver isoform.

The target of data set [8] is T5, Carnitine O-palmitoyltransferase 1, liver isoform (Rattus norvegicus, UniProt P32198).
T5 sequence (P32198 whole entry): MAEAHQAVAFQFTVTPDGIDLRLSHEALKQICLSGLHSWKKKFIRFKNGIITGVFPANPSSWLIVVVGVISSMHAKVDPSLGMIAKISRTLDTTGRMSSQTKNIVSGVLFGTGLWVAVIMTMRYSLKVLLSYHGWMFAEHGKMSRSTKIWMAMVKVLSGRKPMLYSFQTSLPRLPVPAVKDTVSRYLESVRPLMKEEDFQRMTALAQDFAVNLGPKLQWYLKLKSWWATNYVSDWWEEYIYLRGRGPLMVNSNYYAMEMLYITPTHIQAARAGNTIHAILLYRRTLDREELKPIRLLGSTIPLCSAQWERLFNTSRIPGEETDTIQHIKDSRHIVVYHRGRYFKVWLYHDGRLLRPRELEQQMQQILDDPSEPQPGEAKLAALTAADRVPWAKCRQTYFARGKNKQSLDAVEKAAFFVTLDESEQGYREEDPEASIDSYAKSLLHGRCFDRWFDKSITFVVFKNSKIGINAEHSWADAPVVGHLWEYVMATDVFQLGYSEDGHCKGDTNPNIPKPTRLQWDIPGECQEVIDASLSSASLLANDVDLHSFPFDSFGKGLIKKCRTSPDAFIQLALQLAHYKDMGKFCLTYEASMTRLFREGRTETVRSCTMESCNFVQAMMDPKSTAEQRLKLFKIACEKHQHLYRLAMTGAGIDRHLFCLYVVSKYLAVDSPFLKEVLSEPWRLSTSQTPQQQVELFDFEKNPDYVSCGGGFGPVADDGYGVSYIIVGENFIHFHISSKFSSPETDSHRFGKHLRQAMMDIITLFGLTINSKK
Described as §2.

pIC50: −log10 of the molar value. Values after ≈ are worked out from the molar mass of the structure shown.

With `COc1ccc(Cl)cc1S(=O)(=O)N1COc2ccc(C(=O)Nc3ccc(C(=O)O)cc3)cc21`, the logD (usually lipophilicity at a set pH, counting ionised and neutral species) in data set [1] came to 0.65. Besides, the solubility kinetic in data set [2] turned out to be 13 µg/mL (≈ 26.6 µM). Further, the pIC50 – broadly, −log10 of the IC50, conventionally taken in molar units – in data set [3] was 5.18; in data set [4], 5.54; in data set [6], 5.26; in data set [7] it was 7.25; in data set [8], 7.39. In addition, in data set [5], the Papp amounted to 2.93 ×10⁻⁶ cm/s.
With `COc1ccc(Cl)cc1S(=O)(=O)N[C@@H]1CCCN(C(=O)COc2ccccc2)C1`, the pH-dependent lipophilicity (logD) in data set [1] is 2.59. In addition, the solubility kinetic in data set [2] was found to be 64 µg/mL (≈ 146 µM). The pIC50 is under 4.00 in data set [3]; 4.68 in data set [4]; 4.29 in data set [6]; 6.87 in data set [7]; 7.02 in data set [8]. In addition, the Papp in data set [5] was 1.36 ×10⁻⁶ cm/s.
`COc1ccc(Cl)cc1S(=O)(=O)N1COc2ccc(C(=O)Nc3ccc(C(=O)O)c(Cl)c3)cc21`: the logD in data set [1] turned out to be 0.09. The solubility kinetic in data set [2] is over 697 µg/mL. Moreover, the pIC50 in data set [3] was 4.80; in data set [4] it was 5.01; in data set [6], 5.64; in data set [7] it was 6.68; in data set [8], 6.74. Moreover, in data set [5], the Papp came to 1.66 ×10⁻⁶ cm/s.
`O=C(COc1ccccc1)N1CCCC[C@@H]1c1nc(-c2cc[nH]c(=O)c2)no1` displayed a logD in data set [1] of 1.9. Further, the solubility kinetic in data set [2] is 275 µg/mL (≈ 723 µM). Besides, the pIC50 is 4.05 in data set [3]; under 4.00 in data set [4]; under 4.00 in data set [6]; 7.08 in data set [7]; 6.47 in data set [8]. Besides, the Papp in data set [5] was 5.39 ×10⁻⁶ cm/s.
With `Nc1cc(-c2n[nH]c([C@H]3CCCCN3C(=O)COc3ccccc3)n2)ccn1`, the logD in data set [1] stood at 1.95. In data set [2], the solubility kinetic was determined as 281 µg/mL (≈ 743 µM). The negative logarithm of the IC50 (pIC50) in data set [3] is under 4.00; in data set [4] it was under 4.00; in data set [6], under 4.00; in data set [7] it was 6.91; in data set [8], 5.88. The Papp in data set [5] was found to be 2.77 ×10⁻⁶ cm/s.
In turn, `COc1ccc(Cl)cc1S(=O)(=O)N1CCc2c(C)cc(C(=O)Nc3ccc(C(=O)O)c(F)c3)cc21` had a logD in data set [1] of 0.77. The solubility kinetic in data set [2] is 60 µg/mL (≈ 116 µM). In addition, the negative-log IC50 (pIC50) in data set [3] is 6.16; in data set [4], 6.54; in data set [6] it was 5.43; in data set [7], 7.15; in data set [8], 7.02. The Papp in data set [5] stood at 1.65 ×10⁻⁶ cm/s.
Turning to `COc1ccc(Cl)cc1S(=O)(=O)N1CCc2c(C)cc(C(=O)Nc3ccc(C(=O)O)cc3)cc21`, the logD in data set [1] is 2.58. Further, the solubility kinetic in data set [2] was found to be 13 µg/mL (≈ 26 µM). Besides, the pIC50 is 6.46 in data set [3]; 6.49 in data set [4]; 5.26 in data set [6]; 7.11 in data set [7]; 7.25 in data set [8]. In addition, the Papp in data set [5] stood at 2.01 ×10⁻⁶ cm/s.
`COc1ccc(Cl)cc1S(=O)(=O)N1CCc2c(C)cc(C(=O)Nc3ccc(C(=O)O)c(Cl)c3)cc21`: the logD in data set [1] amounted to 0.66. Besides, the solubility kinetic in data set [2] was determined as 311 µg/mL (≈ 581 µM). Also, the pIC50 in data set [3] is 6.01; in data set [4], 6.23; in data set [6] it was 5.45; in data set [7], 7.18; in data set [8], 6.81. Further, the Papp in data set [5] came to 1.52 ×10⁻⁶ cm/s.
On to `CN(C)C(=O)c1ccc(-c2noc(C3C4CC4CN3C(=O)COc3ccccc3)n2)cc1` (stereo not given), for which the logD in data set [1] is 2.17. For the same compound, in data set [2], the solubility kinetic is 147 µg/mL (≈ 340 µM). Also, the pIC50 in data set [3] was 4.24; in data set [4], 4.33; in data set [6], under 4.00; in data set [7] it was 6.78; in data set [8], 5.96. Further, the Papp in data set [5] was 4.37 ×10⁻⁶ cm/s.
With `COc1ccc(Cl)cc1S(=O)(=O)N1CCNc2ccc(C(=O)Nc3ccc(C(=O)O)c(F)c3)cc21`, the pH-dependent lipophilicity (logD) in data set [1] is 0.07. Moreover, the solubility kinetic in data set [2] came to 58 µg/mL (≈ 112 µM). Besides, the negative logarithm of the IC50 (pIC50) in data set [3] was under 4.00; in data set [4], 4.38; in data set [6], 5.19; in data set [7] it was 6.95; in data set [8] it was 6.79. In data set [5], the Papp was 0.23 ×10⁻⁶ cm/s.

The record behind these values is ChEMBL document CHEMBL3431459, “Roche carnitine palmitoyltransferase modulator screening data (supplementary data associated with the publication CHEMBL2216752)”.
